Converted amounts (≈) assume the structure as drawn.

Experiment [1] has as its system Mycolicibacterium smegmatis. Kind of experiment: Antimycobacterial activity against Mycobacterium smegmatis str. MC2 155 incubated for 30 hrs by turbidometric assay. Particulars: str. MC2 155, 30 h. The experiment is classed as functional.
In a further experiment the test system is A549. Kind of experiment: Cytotoxicity against human A549 cells incubated for 48 hrs by SRB assay. The experiment is classed as cell-based. Particulars: A549, 48 h.

Consider `O=C(Cn1cc(C(=O)c2cn(-c3ccccc3)nc2-c2ccccc2)nn1)Nc1c(C(F)(F)F)n[nH]c1-c1ccccc1`, for which, in experiment [1], it took 28.8 µg/mL (≈ 49.5 µM) to inhibit growth (MIC). The molecule further gave an IC50 with A549 of 68 µg/mL (≈ 117 µM). Molecule `O=C(Cn1cc(C(=O)N/N=C/c2cccc(Oc3ccccc3)c2)nn1)Nc1c(C(F)(F)F)n[nH]c1-c1ccccc1` returned an MIC in experiment [1] of 16.6 µg/mL (≈ 28.9 µM). The molecule also yielded an IC50 with A549 above 100 µg/mL.

As to `Cc1ccc(-c2nn(-c3ccccc3)cc2C(=O)c2cn(CC(=O)Nc3c(C(F)(F)F)n[nH]c3-c3ccccc3)nn2)cc1`, the lowest concentration to inhibit growth in experiment [1] (MIC) was 94.5 µg/mL (≈ 158 µM). Moreover, the half-maximal inhibitory concentration (IC50) with A549 was above 100 µg/mL. As for `O=C(Cn1cc(-c2ccc(-c3ccccc3)cc2)nn1)Nc1c(C(F)(F)F)n[nH]c1-c1ccccc1`, the MIC in experiment [1] is 31.8 µg/mL (≈ 65 µM). In the experiment on A549, this molecule had an IC50 of 57 µg/mL (≈ 117 µM). In experiment [1], `O=C(Cn1cc(-c2ccccc2)nn1)Nc1c(C(F)(F)F)n[nH]c1-c1ccccc1` showed an MIC of 35.9 µg/mL (≈ 87.1 µM). Also, half-maximal inhibition in the experiment on A549 (IC50) was put at 52.2 µg/mL (≈ 127 µM). For the molecule `O=C(Cn1cc(-c2ccccc2C(F)(F)F)nn1)Nc1c(C(F)(F)F)n[nH]c1-c1ccccc1`, in experiment [1], the lowest concentration to inhibit growth (MIC) was 53 µg/mL (≈ 110 µM). In the experiment on A549, this molecule returned an IC50 of 64.2 µg/mL (≈ 134 µM). Take `COc1ccc(-c2nn(-c3ccccc3)cc2C(=O)c2cn(CC(=O)Nc3c(C(F)(F)F)n[nH]c3-c3ccccc3)nn2)cc1`: the MIC in experiment [1] was found to be 25.3 µg/mL (≈ 41.2 µM). In addition, 59.6 µg/mL (≈ 97.3 µM) corresponded to half-maximal inhibition in the experiment with A549 (IC50). `CC(C)(C)c1ccc(-c2cn(CC(=O)Nc3c(C(F)(F)F)n[nH]c3-c3ccccc3)nn2)cc1`: the MIC in experiment [1] was above 100 µg/mL. In the experiment on A549, the concentration for half-maximal inhibition (IC50) was found to be 25.8 µg/mL (≈ 55.2 µM). On to `O=C(Cn1cc(C(=O)c2cn(-c3ccccc3)nc2-c2ccc(Cl)cc2)nn1)Nc1c(C(F)(F)F)n[nH]c1-c1ccccc1`, for which the MIC in experiment [1] is above 100 µg/mL. Further, in the experiment with A549, the IC50 was above 100 µg/mL. In turn, `NNC(=O)c1cn(CC(=O)Nc2c(C(F)(F)F)n[nH]c2-c2ccccc2)nn1` yielded an MIC in experiment [1] of 33.9 µg/mL (≈ 85.9 µM). Half-maximal inhibition in the experiment on A549 (IC50) was put at 67.6 µg/mL (≈ 171 µM). In turn, `Cc1cccc(-c2cn(CC(=O)Nc3c(C(F)(F)F)n[nH]c3-c3ccccc3)nn2)c1` yielded a minimum inhibitory concentration (MIC) in experiment [1] of 29.9 µg/mL (≈ 70.2 µM). Moreover, in the experiment with A549, the midpoint of inhibition, the IC50, lay at 60.6 µg/mL (≈ 142 µM). In the experiment with A549, `COc1cccc2c1C(=O)c1c(O)c3c(c(O)c1C2=O)C[C@@](O)(C(=O)CO)C[C@@H]3O[C@H]1C[C@H](N)[C@H](O)[C@H](C)O1` [DOXORUBICIN] registered an IC50 of 8.5 µg/mL (≈ 15.6 µM).

Regarding `COc1ccc(/C=N/NC(=O)c2cn(CC(=O)Nc3c(C(F)(F)F)n[nH]c3-c3ccccc3)nn2)cc1OC`, 41.3 µg/mL (≈ 76.1 µM) was the least that counted as inhibitory in experiment [1] (MIC). Further, the IC50 in the experiment with A549 is above 100 µg/mL. The molecule `COc1ccc(C(=O)c2cn(CC(=O)Nc3c(C(F)(F)F)n[nH]c3-c3ccccc3)nn2)cc1` showed an MIC in experiment [1] of 15.3 µg/mL (≈ 32.6 µM). For the same molecule, the midpoint of inhibition with A549, the IC50, lay at 80.7 µg/mL (≈ 172 µM). On the same counts, the results for `COc1cccc(NCc2cn(CC(=O)Nc3c(C(F)(F)F)n[nH]c3-c3ccccc3)nn2)c1` are 53.9 µg/mL (≈ 114 µM) and 38.3 µg/mL (≈ 81.3 µM). In experiment [1], `COc1ccc(C(=O)c2cn(CC(=O)Nc3c(C(F)(F)F)n[nH]c3-c3ccccc3)nn2)cc1OC` registered an MIC of 65.7 µg/mL (≈ 131 µM). The molecule also gave an IC50 in the experiment on A549 of 26.8 µg/mL (≈ 53.6 µM). With `O=C(Cn1cc(COc2cccc3c(C(F)(F)F)cc(=O)oc23)nn1)Nc1c(C(F)(F)F)n[nH]c1-c1ccccc1`, the MIC in experiment [1] amounted to 53.7 µg/mL (≈ 92.8 µM). For the same molecule, the IC50 in the experiment on A549 is above 100 µg/mL.

As for `O=C(Cn1cc(C(=O)N/N=C/c2ccccc2C(F)(F)F)nn1)Nc1c(C(F)(F)F)n[nH]c1-c1ccccc1`, the MIC in experiment [1] amounted to 16.2 µg/mL (≈ 29.4 µM). The same molecule yielded an IC50 in the experiment on A549 above 100 µg/mL. On the same counts, the results for `COc1ccc(-c2cn(CC(=O)Nc3c(C(F)(F)F)n[nH]c3-c3ccccc3)nn2)c(C)c1` are 85.6 µg/mL (≈ 188 µM) and 54 µg/mL (≈ 118 µM). As to `Cc1cccc(C)c1NCc1cn(CC(=O)Nc2c(C(F)(F)F)n[nH]c2-c2ccccc2)nn1`, the MIC in experiment [1] was determined as 64.1 µg/mL (≈ 136 µM). Half-maximal inhibition in the experiment with A549 (IC50) was put at 52.9 µg/mL (≈ 113 µM).

In experiment [1], `COc1cc(NCc2cn(CC(=O)Nc3c(C(F)(F)F)n[nH]c3-c3ccccc3)nn2)cc(OC)c1OC` registered an MIC of 78.3 µg/mL (≈ 147 µM). The IC50 with A549 was above 100 µg/mL. For the molecule `CO[C@H]1/C=C/O[C@@]2(C)Oc3c(C)c(O)c4c(O)c(c(/C=N/N5CCN(C)CC5)c(O)c4c3C2=O)NC(=O)/C(C)=C\C=C\[C@H](C)[C@H](O)[C@@H](C)[C@@H](O)[C@@H](C)[C@H](OC(C)=O)[C@@H]1C` [RIFAMPIN], the lowest concentration to inhibit growth in experiment [1] (MIC) was 2.15 µg/mL (≈ 2.61 µM). In experiment [1], `CCCCCc1ccc(-c2cn(CC(=O)Nc3c(C(F)(F)F)n[nH]c3-c3ccccc3)nn2)cc1` yielded an MIC of 35.4 µg/mL (≈ 73.3 µM). The molecule further gave an IC50 in the experiment on A549 above 100 µg/mL.

As for `COc1ccc(NCc2cn(CC(=O)Nc3c(C(F)(F)F)n[nH]c3-c3ccccc3)nn2)cc1OC`, the MIC in experiment [1] is 58.3 µg/mL (≈ 116 µM). In the experiment on A549, this molecule returned an IC50 above 100 µg/mL. Take `O=C(Cn1cc(C(=O)N/N=C/c2ccc(C(F)(F)F)cc2)nn1)Nc1c(C(F)(F)F)n[nH]c1-c1ccccc1`: in experiment [1], the MIC was above 100 µg/mL. Moreover, the IC50 with A549 was above 100 µg/mL. Turning to `O=C(Cn1cc(CNc2cccc(C(F)(F)F)c2)nn1)Nc1c(C(F)(F)F)n[nH]c1-c1ccccc1`, the MIC in experiment [1] was 99.6 µg/mL (≈ 196 µM). Also, the IC50 with A549 is 25.3 µg/mL (≈ 49.7 µM). Regarding `NNC(=O)c1ccncc1` [ISONIAZID], the MIC in experiment [1] amounted to 12.1 µg/mL (≈ 88 µM). In experiment [1], `COc1ccc(/C=N/NC(=O)c2cn(CC(=O)Nc3c(C(F)(F)F)n[nH]c3-c3ccccc3)nn2)cc1` had an MIC of 45.6 µg/mL (≈ 88.9 µM). For the same molecule, the 50% inhibitory concentration (IC50) in the experiment on A549 was above 100 µg/mL. On to `CCOC(=O)c1cn(CC(=O)Nc2c(C(F)(F)F)n[nH]c2-c2ccccc2)nn1`, for which it took 27.7 µg/mL (≈ 67.9 µM) to inhibit growth in experiment [1] (MIC). The molecule further gave an IC50 with A549 above 100 µg/mL. Consider `O=C(Cn1cc(-c2ccc(OC(F)(F)F)cc2)nn1)Nc1c(C(F)(F)F)n[nH]c1-c1ccccc1`, for which the minimal inhibitory concentration (MIC) in experiment [1] worked out at 35.4 µg/mL (≈ 71.3 µM). Besides, the IC50 in the experiment with A549 amounted to 45.3 µg/mL (≈ 91.2 µM). Molecule `CCCCc1cn(CC(=O)Nc2c(C(F)(F)F)n[nH]c2-c2ccccc2)nn1` registered an MIC in experiment [1] of 65.5 µg/mL (≈ 167 µM). The molecule further showed an IC50 with A549 above 100 µg/mL.

The values above are taken from ChEMBL document CHEMBL3596091, “Synthesis and evaluation of novel fluorinated pyrazolo-1,2,3-triazole hybrids as antimycobacterial agents” (Bioorg Med Chem Lett, 2015).
